Test results published in patent US9839647B2, “Equol concentration increasing agent containing psicose as active ingredient” (CJ CHEILJEDANG CORPORATION, priority 2011, dated 2017).

Experiments:
[1] = test system: intestinal bacteria capable of producing equol; details: saccharide no add = 100.0; cited from earlier work
[2] = test system: equol producing microorganism population; test: Change in produced equol amount in the presence of carbohydrate (TLC image analysis); assay type: cell-based, human; details: for Variation (produced equol amount relative to culture solution containing xylose and daidzein): 1% carbohydrate, 0.1 mM daidzein, three days, xylose = 100, average of image analysis for two coloring methods
Protocol: The activity for regulating equol concentration by psicose was calculated as follows. To a microorganism population stock having capability to produce equol (obtained by centrifuging and washing feces taken from equol producers, KR Patent Registration No. 2008-0072635), daidzein as a substrate for equol, and psicose were added, followed by culturing and measuring the equol concentration in a culture solution. The measured equol concentration was inserted together with equol concentration in a culture solution containing daidzein and xylose into Equation for calculating equol variation percentage below: Equol variation percentage (%)=(Equol concentration in the culture solution containing psicose and daidzein)/(Equol concentration in the culture solution containing xylose and daidzein)×100
GAM (Gifu anaerobic medium) medium (4 ml) was inoculated with equol producing microorganism population stock stored in liquid nitrogen (obtained by centrifuging and washing feces taken from equol producers, KR Patent Registration No. 2008-0072635), followed by cultivating for 3-4 hours to activate.
When OD (optical density) approached 1.5, 200 μl of medium was taken and transferred to an Eppendorf tube. To the Eppendorf tube, 0.1 mM of daidzein was added, followed by vortexing to initiate reaction.
In order to measure equol production over time, 50 μl of medium was sampled 1, 2 and 3 days after the inoculation.
To the medium, 1 ml of ethyl acetate was added to extract isoflavonoids. Extraction was performed as follows: after vortexing and centrifugation, 800 μl of ethyl acetate was taken from the medium, followed by removal of the solvent through vacuum drying. Then, the resultant was dissolved in 10 μl of methanol. 2 μl was used to perform TLC.
Equol producing microorganism population was inoculated and the product was extracted in the same manner as in Example 1 except that, before the substrate was inoculated with the activated microorganism population, the final concentration of carbohydrate was adjusted to 1% by adding 2 mg each of xylose, tagatose, psicose, sucrose, fructo-oligosaccharide, and glucose. Further, only daidzein was used as the substrate. Unlike the case where pure daidzein was used, the reaction rate of producing equol was changed when carbohydrates were added. Namely, the production of equol occurred more slowly for a long period of time.
In order to compare variation in the produced equol amount in the product, quantitative analysis of TLC results was performed using an image analyzer.
Assuming the produced equol amount in the culture solution containing xylose and daidzein to be 100, the produced equol amount after addition of each carbohydrate for three days was compared. The comparison results are as follows.

Row | Compound | Activity to regulate equol concentration [1] [%] | Variation (produced equol amount relative to culture solution containing xylose and daidzein) [2] [%] | equol production ([2]; reaction condition for three days)
1 | C[C@H](O)[C@H](O)[C@@H](O)[C@@H](O)C=O [Rhamnose] | 116.4 | – | –
2 | OC[C@@H](O)[C@@H](O)[C@H](O)[C@H](O)CO [Mannitol] | 182.2 | – | –
3 | Glycogen | 184.8 | – | –
4 | OC[C@@H](O)[C@@H](O)[C@H](O)[C@@H](O)CO [Sorbiol] | 372.5 | – | –
5 | O=C[C@@H](O)[C@H](O)[C@H](O)CO [Arabinose, arabinose] | 391.1 | – | –
6 | O=C(CO)[C@@H](O)[C@@H](O)[C@H](O)CO [Tagatose, tagatose] | – | 54 | –
7 | OC[C@H]1O[C@@](CO)(O[C@H]2O[C@H](CO)[C@@H](O)[C@H](O)[C@H]2O)[C@@H](O)[C@@H]1O [Sucrose, sucrose] | 0.0 | 54 | –
8 | OC[C@H]1O[C@H](O[C@H]2[C@H](O)[C@@H](O)[C@H](O)O[C@@H]2CO)[C@H](O)[C@@H](O)[C@@H]1O [Maltose] | 58.5 | – | –
9 | O=C[C@H](O)[C@@H](O)[C@H](O[C@@H]1O[C@H](CO)[C@@H](O)[C@H](O)[C@H]1O)[C@H](O)CO [Cellobiose] | 160.6 | – | –
10 | O=C(CO)[C@@H](O)[C@H](O)[C@H](O)CO [Fructose] | 51.5 | – | –
11 | O=C[C@H](O)[C@H](O)[C@H](O)CO [Ribose, ribose] | 329.6 | – | –
12 | OC[C@@H](O)[C@@H](O)CO [Erythritol, erythritol] | 214.2 | – | –
13 | OC[C@H]1O[C@H](OCC2O[C@@H](O)[C@H](O)[C@@H](O)[C@@H]2O)[C@H](O)[C@@H](O)[C@H]1O (some centres unmarked) [Melibiose] | 24.8 | – | –
14 | O[C@H]1[C@H](O)[C@@H](O)[C@H](O)[C@@H](O)[C@H]1O [Inositol, inositol] | 416.2 | – | –
15 | OC[C@@H](O)[C@@H](O[C@@H]1O[C@H](CO)[C@H](O)[C@H](O)[C@H]1O)[C@H](O)[C@@H](O)CO [Lactitol, lactitol] | 459.1 | – | –
16 | O=C(CO)[C@H](O)[C@@H](O)[C@H](O)CO [Sorbose, sorbose] | 467.7 | – | –
17 | OC[C@H]1O[C@@](CO)(O[C@H]2O[C@H](CO)[C@@H](O)[C@H](O)[C@H]2O)[C@@H](O[C@H]2O[C@H](CO)[C@@H](O)[C@H](O)[C@H]2O)[C@@H]1O [Melezitose, melezitose] | 411.6 | – | –
18 | OC[C@H]1O[C@H](O[C@H]2O[C@H](CO)[C@@H](O)[C@H](O)[C@H]2O)[C@H](O)[C@@H](O)[C@@H]1O [Trehalose, trehalose] | 403.5 | – | –
19 | OC[C@H]1O[C@H](OC[C@H]2O[C@H](O[C@]3(CO)O[C@H](CO)[C@@H](O)[C@@H]3O)[C@H](O)[C@@H](O)[C@@H]2O)[C@H](O)[C@@H](O)[C@H]1O [Raffinose] | 0.0 | – | –
20 | O=C[C@H](O)[C@@H](O)[C@H](O)CO [Xylose, xylose] | 442.6 | 100 | –
21 | OC[C@H]1O[C@@H](O[C@H]2[C@H](O)[C@@H](O)C(O)O[C@@H]2CO)[C@H](O)[C@@H](O)[C@H]1O (some centres unmarked) [Lactose] | 0.0 | – | –
22 | Inulin | 0.0 | – | –
23 | OC[C@H]1O[C@@H](O[C@@H]2[C@@H](CO)OC(O)(CO)[C@H]2O)[C@H](O)[C@@H](O)[C@H]1O (mixture of isomers) [Lactulose] | 8.1 | – | –
24 | O=C[C@H](O)[C@@H](O)[C@@H](O)[C@H](O)CO [Galactose, galactose] | 240.1 | – | –
25 | OC[C@@H](O)[C@@H](O)[C@@H](O)CO [Adonitol, adonitol] | 260.0 | – | –
26 | O=C(CO)[C@H](O)[C@H](O)[C@H](O)CO [Psicose, D-psicose] | – | 139 | significantly promoted equol production
